Consider four substances from article PMC7590512, “Lysosomal cathepsin creates chimeric epitopes for diabetogenic CD4 T cells via transpeptidation” (The Journal of Experimental Medicine, 2020).

The test system of one assay is livCat-L and recCat-L. The settings on record: MS/MS.
For assay [1], the system named is Cat-L. The note with it: estimated by comparison with control peptide LQTLALWSRMDQL; C-peptide plus WE14 with Cat-L. From the text:
(§1) For APCs, we used the IA^g7-expressing M12.C3 B cell lymphoma (M12.C3.g7; [Carrasco-Marin et al., 1996]). Four T cell hybridomas were used in various stimulation assays. BDC-2.5 and BDC-10.1 were provided by Dr. Kathryn Haskins (University of Colorado Medical School, Aurora, CO). G7W120 was produced in this laboratory ([Jin et al., 2015]). The insulin B:9-23 reactive AS91 T cell hybridoma ([Levisetti et al., 2007]) was provided by Dr. Emil Unanue (Washington University, St. Louis, MO). T cell hybridomas (10^5 cells) were mixed with either 10^5 paraformaldehyde-fixed APCs or 10^5 unfixed APCs and cultured overnight with various concentrations of synthetic peptide or volumes of a pH-adjusted cathepsin digestion mixture in a final volume of 250 µl. Secreted IL-2 was assayed with a functional assay where the growth and survival of an HT-2 IL-2–dependent cell line was quantified using the dye MTT ([White et al., 2000]) and reported as units per milliliter based on comparison to an IL-2 standard.

The next assay has as its system BDC-10.1 T cell. The note with it: for stimulation of BDC-10.1 (IL-2): M12.C3.g7 APCs, peptides at the concentrations used in the digests, average of three experiments.
Text: as §1

In assay [2] the test system is Cat-L.
The subject of a further assay is ChgA-specific T cells. The note with it: words; ref Stadinski et al., 2010a; cited from earlier work.
Assay [3] relates to BDC-2.5, BDC-10.1, and G7W-120 T cells.

As to C-peptide, the “cleavage of mouse C-peptide” value with livCat-L and recCat-L is “The cleavage after TLAL was found in both digests”. For the same substance, the “C-peptide converted to a stimulatory peptide” value with Cat-L [1] is on record as 2.5–5%. The “stimulation of BDC-10.1 (IL-2)” value in the assay on BDC-10.1 T cell was “neither C-peptide nor WE14 alone had any activity”.

For the substance LQTLALWSRMDQL, the “stimulation of BDC-10.1 (IL-2)” value in the assay with BDC-10.1 T cell is “highly stimulatory”.

On to RKLLW-NH2, for which the “inhibition of generation of the active peptide, words” value in the assay on Cat-L [2] (increasing inhibitor concentrations (44-350 µM)) was “inhibited by RKLLW-NH2 in a dose-dependent manner”. Also, the “inhibition of generation of the active peptide by Cat-L” value in the assay on Cat-L [2] (inhibitor at same concentration as C-peptide substrate, livCat-L or recCat-L, preincubated 30 min on ice) was ~50%. Also, the “inhibition of BDC-10.1 response to 0.17 µM LQTLALWSRMDQL by carried-over inhibitor” value with BDC-10.1 T cell (control for nonspecific inhibition of the stimulation assay) is recorded as “not inhibitory”.

On to WSRMDQLAKELTAE [WE14], for which the “agonism for BDC-2.5 and other ChgA-specific T cells” value in the assay on ChgA-specific T cells was “weak agonist”. Moreover, the “stimulation of BDC-10.1 (IL-2)” value in the assay with BDC-10.1 T cell is on record as “neither C-peptide nor WE14 alone had any activity”. In addition, the “stimulation of three T cells (IL-2)” value in assay [3] is “inactive at the concentrations tested here”.
